Data on two compounds can be found in article PMC7138139 (Molecular and cellular neurosciences, 2020).

One assay addresses T1, Olfr774 (Mus musculus, UniProt Q7TRI5).
T1 sequence (Q7TRI5 1-312): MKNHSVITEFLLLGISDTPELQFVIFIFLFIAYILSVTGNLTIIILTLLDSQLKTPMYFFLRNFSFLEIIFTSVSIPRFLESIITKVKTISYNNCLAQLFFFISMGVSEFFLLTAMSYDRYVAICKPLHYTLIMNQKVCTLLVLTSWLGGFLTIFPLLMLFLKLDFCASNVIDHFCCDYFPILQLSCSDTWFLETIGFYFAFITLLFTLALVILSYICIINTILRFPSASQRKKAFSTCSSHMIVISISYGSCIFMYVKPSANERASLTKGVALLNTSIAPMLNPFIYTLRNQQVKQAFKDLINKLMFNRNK
Briefly: Glosensor cAMP luminescence dose-response, Hana3A cells. The following applies: agonist. It is filed as cell-based.

In a further assay the target is T2, Olfr937 (Mus musculus, UniProt Q9EQB4).
T2 sequence (Q9EQB4 1-311): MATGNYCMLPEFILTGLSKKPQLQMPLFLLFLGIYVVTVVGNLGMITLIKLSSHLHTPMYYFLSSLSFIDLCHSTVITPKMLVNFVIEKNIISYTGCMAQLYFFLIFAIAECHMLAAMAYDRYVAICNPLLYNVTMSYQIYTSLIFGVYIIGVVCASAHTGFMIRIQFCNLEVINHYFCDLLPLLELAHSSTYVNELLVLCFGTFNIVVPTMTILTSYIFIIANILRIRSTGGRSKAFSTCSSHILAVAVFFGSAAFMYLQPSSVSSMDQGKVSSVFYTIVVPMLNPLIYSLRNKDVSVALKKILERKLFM
The assay is described as above. It is filed as cell-based. The following applies: antagonist of whiskey lactone response; 316 uM.

Molecules are shown by their SMILES.

As to `CCCCCCCCCCC=O` [undecanal], on Olfr774, the “Glosensor cAMP luminescence dose-response, Hana3A cells” value is “In vitro testing confirmed that Olfr774 responded to undecanal but not to bourgeonal”.
For the compound `CC(C)(C)c1ccc(CCC=O)cc1` [bourgeonal, 3-(4-tert-butylphenyl)propanal], at Olfr937, the “Glosensor cAMP luminescence dose-response, Hana3A cells” value was “bourgeonal and lyral also suppressed Olfr937 responses to whiskey lactone, with bourgeonal being more effective”.
